Source: patent US20250177383A1, “DI-CYCLOPROPYL BASED IL-17A MODULATORS AND USES THEREOF” (DICE ALPHA, INC., priority 2022, published 2025)
Like-named read-outs stand apart in the source and are kept apart here.

How the values were obtained:
IL-17A/A = biological target: T1, IL-17A/A (Homo sapiens, UniProt Q16552); test: IL-17A/A HEK-Blue Cell Assay; format: cell-based; conditions: IL-17A/A stimulation, 20 hours, SEAP readout
T1 sequence (Q16552 24-155): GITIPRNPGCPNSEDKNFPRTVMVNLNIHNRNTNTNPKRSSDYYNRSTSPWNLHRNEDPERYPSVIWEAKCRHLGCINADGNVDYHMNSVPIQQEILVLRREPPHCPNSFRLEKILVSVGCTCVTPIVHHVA
Method: (§1) The HEK-Blue IL-17 reporter cell line (Fisher #NC1408637) was used for cell-based IL-17A/A inhibition assays. Cells were grown and prepared for assays according to the manufacturer's instructions. This cell line consists of HEK 293 cells that were designed to expressed IL-17R^A, IL-17R^C, and the ActI adapter molecule, the combination of which, when stimulated by IL-17A/A activates a NFκB promoter and drives expression of a recombinant Secreted Alkaline Phosphatase (SEAP) protein. Media from the cells is then added to a development reagent (Quanti-Blue Substrate, Fisher #NC9711613), and read at A630.
(§2) Compounds were titrated in DMSO, with a top final compound concentration of 10 uM and added to the cells immediately before adding IL-17A/A (Genscript #Z03228). The cells, compound, and IL-17A/A were then incubated for 20 hours before media was removed for SEAP analysis. The resulting inhibition curve was then analyzed using a Dotmatics screening protocol, and IC50 values were determined using a 4-parameter nonlinear fit. DMSO was added to a universal final concentration of 0.1% to optimize background. IL-17A/A inhibition data is provided in Table 1 for selected compounds.

IL-17A/F = biological target: T2, IL-17A/F (Homo sapiens, UniProt Q16552+Q96PD4); test: IL-17A/F HEK-Blue Cell Assay; format: cell-based; conditions: HEK-Blue IL-17 reporter cells, IL-17A/F stimulation, 20 hours, SEAP readout; read-out: IL17AF HEK Blue pIC50 (converted)
T2 sequence (Q16552 24-155): T1 sequence (Q16552 24-155)
T2 sequence (Q96PD4 31-163): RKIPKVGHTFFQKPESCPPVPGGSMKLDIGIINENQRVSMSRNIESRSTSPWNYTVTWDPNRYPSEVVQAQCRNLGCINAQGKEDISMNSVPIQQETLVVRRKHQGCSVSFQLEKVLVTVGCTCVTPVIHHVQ
Method: as §1, with “cell-based IL-17A/F” for “cell-based IL-17A/A”, “expressed IL-17RA,” for “expressed IL-17R^A,”, “(SEAP) geneprotein.” for “(SEAP) protein.”
as §2, with “DMSO” for “DMSO, with a top final compound concentration of 10 uM”, “(Custom from R&D systems, untagged IL-17A/F+BSA as a carrier protein).” for “(Genscript #Z03228).”, “background.” for “background. IL-17A/A inhibition data is provided in Table 1 for selected compounds.”

[1] = HEK-Blue IL-17 reporter cells, read-out: IL17 AA HEK-5 pIC50 (converted)

Compound | IC50 (IL-17A/A; [1]) | IC50 (IL-17A/F) | IC50 (IL-17A/A; IL17 AA HEK-5 pIC50, HEK-Blue IL-17 reporter cells) | IL17 AA HEK-5 pIC50 (IL-17A/A; HEK-Blue IL-17 reporter cells)
CCn1nccc1C(=O)N[C@H](C(=O)Nc1ccc([C@H](C)[C@@H](NC(=O)[C@H](C)OC)C(=O)N2CCN(C)C(CF)C2)cc1F)C(C1CC1)C1CC1 (single isomer, unassigned) [Compound 299] | < 10 nM | 10 to 100 nM | – | –
CCc1nonc1C(=O)N[C@H](C(=O)Nc1ccc([C@H](C)[C@@H](NC(=O)CF)C(=O)N2CCNC(CF)C2)cc1F)C(C1CC1)C1CC1 (single isomer, unassigned) [Compound 302] | – | 100 to 10000 nM | 10 to 100 nM | –
CCC(=O)N[C@@H](C(=O)N1CCNC(CF)C1)[C@@H](C)c1ccc(NC(=O)[C@@H](NC(=O)c2nonc2CC)C(C2CC2)C2CC2)c(F)c1 (single isomer, unassigned) [Compound 304] | < 10 nM | 100 to 10000 nM | – | –
CCn1nccc1C(=O)N[C@H](C(=O)Nc1ccc([C@H](C)[C@@H](NC(=O)C(C)C2CC2)C(=O)N2CCN(C)[C@H](C)C2)cc1F)C(C1CC1)C1CC1 (single isomer, unassigned) [Compound 309] | < 10 nM | < 10 nM | – | –
CCn1nccc1C(=O)N[C@H](C(=O)Nc1ccc([C@H](C)[C@@H](NC(=O)C(C)C2CC2)C(=O)N2CCN(C)[C@H](C)C2)cc1F)C(C1CC1)C1CC1 (single isomer, unassigned) [Compound 310] | – | 10 to 100 nM | – | A (pIC50 of greater than or equal 8 as A)
CCn1nccc1C(=O)N[C@H](C(=O)Nc1ccc([C@H](C)[C@@H](NC(=O)C(C)OCCOC)C(=O)N2CCN(C)[C@H](C)C2)cc1F)C(C1CC1)C1CC1 (single isomer, unassigned) [Compound 311] | 10 to 100 nM | 100 to 10000 nM | – | –
CCn1nccc1C(=O)N[C@H](C(=O)Nc1ccc([C@H](C)[C@@H](NC(=O)C(C)OCCOC)C(=O)N2CCN(C)CC2)cc1F)C(C1CC1)C1CC1 (single isomer, unassigned) [Compound 314] | 100 to 10000 nM | 100 to 10000 nM | – | –
CO[C@@H](C)C(=O)N[C@@H](C(=O)N1C[C@H]2C[C@@H]1CN2C)[C@@H](C)c1ccc(NC(=O)[C@@H](NC(=O)c2ccnn2C(C)C)C(C2CC2)C2CC2)c(F)c1 [Compound 263] | 10 to 100 nM | – | – | –
CCC(=O)N[C@@H](C(=O)N1CC[C@H](N(C)C)C1)[C@@H](C)c1ccc(NC(=O)[C@@H](NC(=O)c2ccnn2C(C)C)C(C2CC2)C2CC2)c(F)c1 [Compound 265] | < 10 nM | – | – | –
CO[C@@H](C)C(=O)N[C@@H](C(=O)N1CCN(C)CC1)[C@@H](C)c1ccc(NC(=O)[C@@H](NC(=O)C2(F)CC2)C(C2CC2)C2CC2)c(F)c1 [Compound 272] | 10 to 100 nM | – | – | –

Further lines, with some results ahead:

IC50 (IL-17A/A; [1]) | IC50 (IL-17A/F) | Compound | IC50 (IL-17A/A; IL17 AA HEK-5 pIC50, HEK-Blue IL-17 reporter cells) | IL17 AA HEK-5 pIC50 (IL-17A/A; HEK-Blue IL-17 reporter cells)
10 to 100 nM | 100 to 10000 nM | CO[C@@H](C)C(=O)N[C@@H](C(=O)N1CCNC(CF)C1)[C@@H](C)c1ccc(NC(=O)[C@@H](NC(=O)C2(F)CC2)C(C2CC2)C2CC2)c(F)c1 (single isomer, unassigned) [Compound 301] | – | –
10 to 100 nM | 100 to 10000 nM | CCn1nccc1C(=O)N[C@H](C(=O)Nc1ccc([C@H](C)[C@@H](NC(=O)[C@@H](C)F)C(=O)N2CCNC(CF)C2)cc1F)C(C1CC1)C1CC1 (single isomer, unassigned) [Compound 303] | – | –
< 10 nM | – | CCC(=O)N[C@@H](C(=O)N1C[C@H]2CC[C@@H](C1)N2C)[C@@H](C)c1ccc(NC(=O)[C@@H](NC(=O)c2ccnn2C(C)C)C(C2CC2)C2CC2)c(F)c1 [Compound 264] | – | –
10 to 100 nM | – | CCC(=O)N[C@@H](C(=O)N1C[C@H]2C[C@@H]1CN2C)[C@@H](C)c1ccc(NC(=O)[C@@H](NC(=O)c2ccnn2C(C)C)C(C2CC2)C2CC2)c(F)c1 [Compound 266] | – | –
10 to 100 nM | – | CCC(=O)N[C@@H](C(=O)N1CCC[C@@H](N)C1)[C@@H](C)c1ccc(NC(=O)[C@@H](NC(=O)c2ccnn2CC)C(C2CC2)C2CC2)c(F)c1 [Compound 268] | – | –
10 to 100 nM | – | CCOC(=O)N1CC[C@H]1C(=O)N[C@@H](C(=O)N1CCN(C)CC1)[C@@H](C)c1ccc(NC(=O)[C@@H](NC(=O)C2(F)CC2)C(C2CC2)C2CC2)c(F)c1 [Compound 274] | – | –
